We go through two compounds from patent EP0624586B1, “Substituted pyrroles” (F. HOFFMANN-LA ROCHE AG, priority 1993, dated 1994).

The target of the test is protein kinase C. Nature of the test: in vitro protein kinase C inhibition (32P incorporation from [γ-32P]ATP into histone). The class given is biochemical. The following applies: protein kinase C isolated from rat brains; 10 µM [γ-32P]ATP, lysine-rich histone, 30°C, 10 minutes. The procedure:
Reaction mixtures (100 µl) contain 10 µM [γ-^32P]ATP, 0.2 mg/ml (about 15 µM) lysine-rich histone, 0.5 mM CaCl2 and 40 µg/ml phosphatidylserine in 25 mM Tris HCl, 5 mM MgNO3 (pH 7.5) buffer. The enzyme protein kinase C is isolated from rat brains according to the method of Kikkawa et al., J. Biol. Chem. 257, 13341 (1982). The reaction is started by adding the enzyme, is run at 30°C for 10 minutes and is then stopped using 1 ml of ice-cold 10% trichloroacetic acid. Acid-precipitable protein is collected on glass fibre discs by filtration. These discs are then washed with 5% trichloroacetic acid containing 20 mM sodium pyrophosphate (in order to remove unreacted ATP), followed by ethanol. The discs are dried and counted. Counts associated with each disc are used as a measure of the incorporation of ^32P from [γ-^32P]ATP into histone. The degree of enzyme blockade at each test compound concentration is calculated from (Cpm incorporated + test compound + enzyme)/(Cpm incorporated - test compound + enzyme)x 100% [formula] The IC50 value is that concentration of test compound which reduces by 50% the protein kinase-induced incorporation of the ^32P under the assay conditions described above.

The structures appear in SMILES notation. Counter-ions that a name gives are not always drawn.

The compound `CCC(N)[C@H]1CCn2c(c(C3=C(c4cn(C)c5ccccc45)C(=O)NC3=O)c3ccccc32)C1` (single isomer, unassigned) [Example 10, 3-[8(S)-[1(R or S)-aminopropyl]-6,7,8,9-tetrahydropyrido[1,2-a]indol-10-yl]-4-(1-methyl-3-indolyl)-1H-pyrrole-2,5-dione hydrochloride] gave an IC50 of 3.3 nM.

`CC(C)[C@H](N)[C@H]1CCn2c(c(C3=C(c4cn(C)c5ccccc45)C(=O)NC3=O)c3ccccc32)C1` [Example 11, 3-[8(S)-[1(S)-amino-2-methylpropyl]-6,7,8,9-tetrahydropyrido[1,2-a]indol-10-yl-4-(1-methyl-3-indolyl)-1H-pyrrole-2,5-dione hydrochloride] registered an IC50 of 5.5 nM.

As usually defined, the IC50 is the point on the concentration scale where inhibition reaches its midpoint. Read a low IC50 as inhibition by little substance.
